Laboratory results from paper PMC8398766, “Do Small Molecules Activate the TrkB Receptor in the Same Manner as BDNF? Limitations of Published TrkB Low Molecular Agonists and Screening for Novel TrkB Orthosteric Agonists” (Pharmaceuticals, 2021).
Values after ≈ are worked out from the molar mass of the structure shown. “Also recorded” adds a separate entry of the source. Where two headings read alike, the source gives them in different places. Each block holds one molecule with its values, some of them ahead of it.

Columns and labels:
in vitro = conditions: PAMPA, pH 7.4
in vivo = format: in vivo, BALB/c mice
Procedure: The animals were obtained from the Center of Experimental Medicine (University of Bialystok, Bialystok, Poland) and housed under standard laboratory conditions. Mice had unlimited access to water and food. All the procedures were conducted according to the guidelines of the local ethical commission (appl no. 06/2019, perm. no 10/2019). […] Four animals per time point were sacrificed at 10 min, 30 min, 1 h, 2 h, and 4 h after per os administration and 5 min, 10 min, 30 min, 1 h, and 2 h after i.v. administration. The blood (0.5 mL) was collected by heart puncture using probes with anticoagulants (K2EDTA). Plasma samples were obtained by blood centrifugation (15 min, 3000× g at 23 °C). The whole brain was dissected from the skull and washed with cold 0.9% NaCl on ice. The left hemisphere was quickly frozen in liquid nitrogen and stored at −80 °C for further bioanalytical analysis. From the right hemisphere, the hippocampus and frontal cortex were isolated, weighed, and stored at −80 °C after freezing in liquid nitrogen. Isolated structures were homogenized in N-PER cocktail (10 μL for every 1 mg of tissue) using a hand homogenizer, and then processed as described in Section 4.3.3.
For bioanalytical evaluation, brain samples were homogenized in water (3 mL for every 1 g of brain tissue). Plasma and brain samples were then prepared by precipitating proteins and extracting analytes using acetonitrile with the addition of the internal standard: 150 μL of extraction solution was added to 50 μL of biological material, mixed for 1 min and centrifuged (12,900 RPM, 4 min, 4 °C), and the supernatant was collected for analysis. Standard solutions including calibration standards and quality control samples were prepared by spiking 45 μL of biological material with 5 μL of standard working solution, adding 150 μL of extraction solution, and then mixing, centrifuging, and collecting the supernatant for analysis. The concentrations of analytes in the plasma and brain samples were determined using a UPLC-MS/MS instrument (Agilent Technologies) and chromatographic columns (Agilent Zorbax Eclipse 50 × 2.1 mm; 1.7 μm).

[1] = tested on: TrkB receptor and downstream proteins (PLCγ1, Akt1, ERK1/2); test: Pharmacodynamics: immunoblot of hippocampus and frontal cortex; format: in vivo, BALB/c mice; conditions: 30 min and 2 h after 50 mg/kg p.o.
Procedure: (§1) Compound treatment was stopped by lysing cells with N-PER™ Neuronal Protein Extraction Reagent (Thermo Fisher Scientific) containing 1 × PhosSTOP™ (Roche, Basel, Switzerland), 1 × Halt Protease Inhibitor Single-Use Cocktail (ThermoFisher Scientific) and 5 mM EDTA. The lysates were collected by scraping, and centrifuged (8000× g; 10 min at 4 °C), and the protein concentration was determined using a BCA Pierce kit (ThermoFisher Scientific). The lysates were stored at −80 °C until further processing. Samples containing 20 μg of protein were further denatured in 4 × Laemli Buffer with 5% β-mercaptoethanol at 95 °C for 5 min and electrophoresed on gels prepared using a 10% TGX Stain-Free™ FastCast™ Acrylamide Kit (Bio-Rad). Afterwards, the proteins were transferred (wet transfer, 100 V, 60 min) onto nitrocellulose membranes (GE Healthcare, Chicago, IL, USA), which were blocked in 5% BSA in TBS-T (TBS + 0.1% Tween20) for 2 h. […] After repeated washes (TBS-T), the proteins were detected with HRP-conjugated anti-rabbit antibodies (1:4000, RT, 2 h) (Cell Signaling Technology), and the blots were incubated with Clarity Max ECL Western Blotting Substrate (Bio-Rad). Blot images and chemiluminescence signals were captured using a ChemiDoc MP Imaging System, and densitometry values were calculated using the Image Lab software (Bio-Rad). […]

D1 = target: T1, D1 (Homo sapiens, UniProt P21728); test: BioPrint Profile Panel; format: binding; conditions: Antagonist, Receptor, read-out: % of specific inhibition
T1 construct: purchased Eurofins Discovery (Cerep) BioPrint Profile Panel
Description: (§2) The BioPrint® Profile Panel service offered by Eurofins Discovery (Poitiers, France) was chosen to perform selectivity analysis.

NK2 = target: T2, NK2 (Homo sapiens, UniProt P21452); test: BioPrint Profile Panel; format: binding; conditions: Agonist, Receptor, read-out: % of specific inhibition
T2 construct: purchased Eurofins Discovery (Cerep) BioPrint Profile Panel
Description: as §2

5-HT1D = target: T3, 5-HT1D (Rattus norvegicus, UniProt P28565); test: BioPrint Profile Panel; format: binding; conditions: Agonist, Receptor, read-out: % of specific inhibition
T3 construct: purchased Eurofins Discovery (Cerep) BioPrint Profile Panel
Description: as §2

CB2 = target: T4, CB2 (Homo sapiens, UniProt P34972); test: BioPrint Profile Panel; format: binding; conditions: Agonist, Receptor, read-out: % of specific inhibition
T4 construct: purchased Eurofins Discovery (Cerep) BioPrint Profile Panel
Description: as §2

physchem = conditions: 25 °C, pH 7.4, aqueous buffer, kinetic from dmso stock, pH 7.4, 4 h
ERK1/2 and Akt1 = test: Immunoblot, non-differentiated SH-SY5Y cells; format: cell-based
Procedure: The SH-SY5Y cell line was purchased from MilliporeSigma and cultured in growth medium: MEM (w/Earle’s Salts; w/L-Glutamine) + Ham’s F12 (w/L-Glutamine) (1:1 v/v), 1 × Antibiotic-Antimycotic, 1 × MEM Non-Essential Amino Acids (all reagents from Biowest, Riverside, MO, USA) and 15% FBS (Gibco, Thermo Fisher Scientific, Waltham, MA, USA). Cells were passaged using 0.25% Trypsin-EDTA (Biowest) and cultured in standard conditions (5% CO2, 37 °C with 95% relative humidity).
as §1, with “processing.” for “processing. Samples containing 20 μg of protein were further denatured in 4 × Laemli Buffer with 5% β-mercaptoethanol at 95 °C for 5 min and electrophoresed on gels prepared using a 10% TGX Stain-Free™ FastCast™ Acrylamide Kit (Bio-Rad). Afterwards, the proteins were transferred (wet transfer, 100 V, 60 min) onto nitrocellulose membranes (GE Healthcare, Chicago, IL, USA), which were blocked in 5% BSA in TBS-T (TBS + 0.1% Tween20) for 2 h.”

PAMPA = conditions: 10 μM, 4 h
[2] = male, BALB/c, mouse, in vivo, po, 50 mg/kg

T1 sequence (P21728 whole entry): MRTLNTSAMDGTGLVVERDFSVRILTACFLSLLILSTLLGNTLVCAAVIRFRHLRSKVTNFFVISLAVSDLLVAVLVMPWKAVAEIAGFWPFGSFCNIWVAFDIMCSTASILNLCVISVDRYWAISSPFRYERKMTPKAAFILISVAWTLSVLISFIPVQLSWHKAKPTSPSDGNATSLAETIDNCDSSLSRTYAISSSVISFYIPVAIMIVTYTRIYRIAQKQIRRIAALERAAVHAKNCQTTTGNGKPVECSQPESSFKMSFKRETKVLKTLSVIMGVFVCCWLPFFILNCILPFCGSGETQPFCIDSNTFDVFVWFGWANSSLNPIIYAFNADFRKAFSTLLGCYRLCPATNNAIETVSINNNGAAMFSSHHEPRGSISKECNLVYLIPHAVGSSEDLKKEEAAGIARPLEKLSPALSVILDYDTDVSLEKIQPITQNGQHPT
T4 sequence (P34972 whole entry): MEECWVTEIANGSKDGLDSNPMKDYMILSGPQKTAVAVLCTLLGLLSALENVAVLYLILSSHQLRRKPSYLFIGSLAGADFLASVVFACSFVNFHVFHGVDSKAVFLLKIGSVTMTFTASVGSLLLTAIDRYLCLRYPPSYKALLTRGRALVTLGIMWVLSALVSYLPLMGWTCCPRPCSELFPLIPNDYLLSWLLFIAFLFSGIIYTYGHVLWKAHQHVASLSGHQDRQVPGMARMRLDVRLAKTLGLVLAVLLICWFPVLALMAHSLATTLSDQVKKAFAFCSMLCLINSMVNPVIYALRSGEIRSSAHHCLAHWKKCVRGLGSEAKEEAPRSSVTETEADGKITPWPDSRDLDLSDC
T2 sequence (P21452 whole entry): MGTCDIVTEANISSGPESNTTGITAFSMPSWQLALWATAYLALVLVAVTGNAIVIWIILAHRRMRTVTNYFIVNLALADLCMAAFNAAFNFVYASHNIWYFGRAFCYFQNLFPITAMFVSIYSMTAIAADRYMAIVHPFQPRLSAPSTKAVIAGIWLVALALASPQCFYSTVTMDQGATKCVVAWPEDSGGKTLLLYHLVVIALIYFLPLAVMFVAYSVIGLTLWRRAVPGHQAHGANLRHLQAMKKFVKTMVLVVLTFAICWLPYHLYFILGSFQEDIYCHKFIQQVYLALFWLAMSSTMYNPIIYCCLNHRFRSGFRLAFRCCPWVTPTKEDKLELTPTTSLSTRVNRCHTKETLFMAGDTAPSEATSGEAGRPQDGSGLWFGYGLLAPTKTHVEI
T3 sequence (P28565 whole entry): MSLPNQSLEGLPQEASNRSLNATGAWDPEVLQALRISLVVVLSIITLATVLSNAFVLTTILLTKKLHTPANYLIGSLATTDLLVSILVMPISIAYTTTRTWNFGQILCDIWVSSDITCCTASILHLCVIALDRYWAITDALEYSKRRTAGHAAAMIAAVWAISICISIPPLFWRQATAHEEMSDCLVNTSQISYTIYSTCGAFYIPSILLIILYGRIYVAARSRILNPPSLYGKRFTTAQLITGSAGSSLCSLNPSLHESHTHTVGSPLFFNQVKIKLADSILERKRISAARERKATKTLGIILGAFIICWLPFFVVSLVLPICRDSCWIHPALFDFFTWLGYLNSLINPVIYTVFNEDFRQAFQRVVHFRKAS

Structure (SMILES): O=c1cc(-c2ccccc2)oc2c(O)c(O)ccc12 [7,8-DHF, 7,8-dihydroxyflavone]
Papp at 4 h, 10 μM (in vitro): 15.8 ×10⁻⁶ cm/s | Detection in plasma or brain samples (in vivo; 7,8-DHF i.v. 1 mg/kg): not detectable | C brain, individual mice (in vivo; 7,8-DHF i.v. 1mg/kg, 5min): < LLQ | C plasma, individual mice (in vivo; 7,8-DHF i.v. 1mg/kg, 5min): < LLQ | C brain, individual mice (in vivo; 7,8-DHF i.v. 1mg/kg, 10 min): < LLQ | C plasma, individual mice (in vivo; 7,8-DHF i.v. 1mg/kg, 10 min): < LLQ | C brain, individual mice (in vivo; 7,8-DHF i.v. 1mg/kg, 30 min): < LLQ | C plasma, individual mice (in vivo; 7,8-DHF i.v. 1mg/kg, 30 min): < LLQ | C brain, individual mice (in vivo; 7,8-DHF i.v. 1mg/kg, 1h): < LLQ | C plasma, individual mice (in vivo; 7,8-DHF i.v. 1mg/kg, 1h): < LLQ | C brain, individual mice (in vivo; 7,8-DHF i.v. 1mg/kg, 2h): < LLQ | C plasma, individual mice (in vivo; 7,8-DHF i.v. 1mg/kg, 2h): < LLQ | C plasma, individual mice (in vivo; 7,8-DHF p.o 50mg/kg, 1h): < LLQ | C brain, individual mice (in vivo; 7,8-DHF p.o 50mg/kg, 4h): < LLQ | C plasma, individual mice (in vivo; 7,8-DHF p.o 50mg/kg, 4h): < LLQ | Brain concentration relative to plasma (in vivo; 7,8-DHF p.o. 50 mg/kg): 10 fold lower | Time at which plasma concentration fell under the detection limit (in vivo; 7,8-DHF p.o. 50 mg/kg): 1 h | AUC (in vivo; [2]): 20.9 ng·h/mL | Time of maximal plasma concentration (in vivo; [2]): 10 min | Tmax (in vivo; [2]): 9.6 min | Cmax (in vivo; male, BALB/c, mouse, in vivo, po, 50 mg/kg, brain, 7,8-DHF p.o. 50 mg/kg, read-out: Cmax): 6.35 ng/g | Cmax (in vivo; male, BALB/c, mouse, in vivo, po, 50 mg/kg, plasma, 7,8-DHF p.o. 50 mg/kg, read-out: Cmax): 77.4 ng/mL | Cmax (in vivo; plasma, 7,8-DHF p.o. 50 mg/kg, 50 mg/kg): 72.42 ng/mL | Activation of the TrkB receptor (phosphorylation) [1]: did not observe any activation; also recorded: no effect | PLCγ1, Akt1, and ERK1/2 phosphorylation [1]: no impact | inhibition at 10 µM (D1): -4% | inhibition at 10 µM (NK2): -2% | inhibition at 10 µM (5-HT1D): -8% | inhibition at 10 µM (CB2): -3% | solubility kinetic at 4 h (physchem): 303 µM (≈ 77 µg/mL)

PAMPA (PAMPA): 6.93 10^−6·cm/s
Structure (SMILES): C=CC(C)(C)c1[nH]c2ccccc2c1C1=C(O)C(=O)C(c2c[nH]c3c(CC=C(C)C)cccc23)=C(O)C1=O [DMAQ-B1]
Phosphorylation of ERK1/2 and Akt1 (ERK1/2 and Akt1): significantly induce
